Assay results published in patent US7268131B2, “Substituted [1,4]oxazino[2,3-g]indazoles for the treatment of glaucoma” (Alcon, Inc., priority 2003, dated 2007).
Counter-ions that a name gives are not always drawn.

Columns and labels:
5-HT2A [1] = molecular target: T1, 5-HT2A (Rattus norvegicus, UniProt P14842); assay: 5-HT2 functional Assay: [Ca2+]i Mobilization (FLIPR); assay type: cell-based; set-up: endogenous in cells; host or cells: A7r5 rat vascular smooth muscle cells; conditions: for EC50: [Ca2+]i mobilization, A7r5 rat vascular smooth muscle cells, FLIPR; for Emax: percentage of a maximum 5-HT-induced response, A7r5 cells
Description: 5-HT2 functional Assay: [Ca^2+]i Mobilization
The receptor-mediated mobilization on intracellular calcium ([Ca^2+]i) was studied using the Fluorescence Imaging Plate Reader (FLIPR) instrument. Rat vascular smooth muscle cells, A7r5, were grown in a normal media of DMEM/10% FBS and 10 μg/mL gentamycin. Confluent cell monolayers were trypsinized, pelleted, and re-suspended in normal media. Cells were seeded in a 50 μL volume at a density of 20,000 cells/well in a black wall, 96-well tissue culture plate and grown for 2 days.
On the day of the experiment, one vial of FLIPR Calcium Assay Kit dye was re-suspended in 50 mL of a FLIPR buffer consisting of Hank's Balanced Salt Solution (HBSS), 20 mM HEPES, and 2.5 mM probenecid, pH 7.4. Cells were loaded with the calcium-sensitive dye by addition of an equal volume (50 μL) to each well of the 96-well plate and incubated with dye for 1 h at 23° C.
Typically, test compounds were stored at 25 μM in 50% DMSO/50% Ethanol solvent. Compounds were diluted 1:50 in 20% DMSO/20% Ethanol. For “hit” screening, compounds were further diluted 1:10 in FLIPR buffer and tested at a final concentration of 10 μM. For dose-response experiments, compounds were diluted 1:50 in FLIPR buffer and serially diluted 1:10 to give a 5- or 8-point dose-response curve.
The compound plate and cell plate were placed in the FLIPR instrument. At the beginning of an experimental run, a signal test was performed to check the basal fluorescence signal from the dye-loaded cells and the uniformity of the signal across the plate. The basal fluorescence was adjusted between 8000-12000 counts by modifying the exposure time, the camera F-stop, or the laser power. Instrument settings for a typical assay were the following: laser power 0.3-0.6 W, camera F-stop F/2, and exposure time 0.4 sec. An aliquot (25 μL) of the test compound was added to the existing 100 μL dye-loaded cells at a dispensing speed of 50 μL/sec. Fluorescence data were collected in real-time at 1.0 sec intervals for the first 60 secs and at 6.0 sec intervals for an additional 120 secs. Responses were measured as peak fluorescence intensity minus basal and where appropriate were expressed as a percentage of a maximum 5-HT-induced response. When the compounds were tested as antagonists against 10 μM 5-HT, they were incubated with the cells for 15 minutes prior to the addition of 5-HT.

5-HT2A [2] = molecular target: T1, 5-HT2A; assay: 5-HT2 Receptor Binding Assay ([125I]DOI competition); conditions: competition for [125I]DOI binding, rat or human cerebral cortex homogenates
Description: 5-HT2 Receptor Binding Assay
Aliquots of post mortem rat or human cerebral cortex homogenates (400 μL) dispersed in 50 mM Tris HCl buffer (pH 7.4) are incubated with [^125I]DOI (80 pM final) in the absence or presence of methiothepin (10 μM final) to define total and non-specific binding, respectively, in a total volume of 0.5 mL. The assay mixture is incubated for 1 hour at 23° C. in polypropylene tubes and the assays terminated by rapid vacuum filtration over Whatman GF/B glass fiber filters previously soaked in 0.3% polyethyleneimine using ice-cold buffer. Test compounds (at different concentrations) are substituted for methiothepin. Filter-bound radioactivity is determined by scintillation spectrometry on a beta counter. The data are analyzed using a non-linear, iterative curve-fitting computer program [Trends Pharmacol. Sci., 16, 413 (1995)] to determine the compound affinity parameter. The concentration of the compound needed to inhibit the [^125I]DOI binding by 50% of the maximum is termed the IC50 or Ki value.

T1 sequence (P14842 whole entry): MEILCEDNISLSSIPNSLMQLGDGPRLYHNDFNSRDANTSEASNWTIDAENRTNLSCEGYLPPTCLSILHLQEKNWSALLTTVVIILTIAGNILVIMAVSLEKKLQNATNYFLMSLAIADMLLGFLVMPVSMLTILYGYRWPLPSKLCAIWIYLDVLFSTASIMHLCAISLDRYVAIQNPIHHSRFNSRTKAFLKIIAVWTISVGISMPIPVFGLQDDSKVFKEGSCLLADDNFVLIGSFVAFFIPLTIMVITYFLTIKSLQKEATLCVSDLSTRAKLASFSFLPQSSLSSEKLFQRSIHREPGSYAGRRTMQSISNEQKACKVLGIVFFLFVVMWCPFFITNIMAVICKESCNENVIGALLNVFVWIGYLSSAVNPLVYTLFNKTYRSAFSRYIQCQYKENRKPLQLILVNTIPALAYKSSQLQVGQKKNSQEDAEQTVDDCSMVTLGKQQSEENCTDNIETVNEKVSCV

Structure (SMILES)	EC50 (5-HT2A [1])	Emax (5-HT2A [1])	IC50 (5-HT2A [2])	melting point
C[C@H](N)Cn1ncc2ccc3c(c21)N(C)CCO3.O=C(O)/C=C/C(=O)O [Example 1, (S)-2-(8,9-dihydro-9-methyl-7H-[1,4]oxazino[2,3-g]indazol-1-yl)-1-methylethylamine fumarate]	20 nM	82%	1 nM	185 to 187 °C
C[C@H](N)Cn1ncc2ccc3c(c21)NC(=O)CO3.Cl [Example 2, 1-((S)-2-Aminopropyl)-1,9-dihydro-7H-[1,4]oxazino[2,3-g]indazol-8-one hydrochloride]	195 nM	60%	3.5 nM	293 to 295 °C
C[C@H](N)Cn1ncc2ccc3c(c21)N(C)C(=O)CO3 [Example 3, 1-((S)-2-Aminopropyl)-1,9-dihydro-9-methyl-7H-[1,4]oxazino[2,3-g]indazol-8-one hydrochloride]	550 nM	41%	7.6 nM	–
